According to patent US20210292340A1, “CELL NECROSIS INHIBITOR, PREPARATION METHOD THEREFOR AND USE THEREOF” (SHANGHAI INSTITUTE OF ORGANIC CHEMISTRY, CHINESE ACADEMY OF …, priority 2018, published 2021):
Read-outs that look alike come from different tables or passages of the source.

Experiments:
[1] = Plasma concentration in mice after a single oral administration; type: in vivo; conditions: single oral dose 10 mg/kg, 0.25-24 h
Description: An oral solution containing Compound RIP1-034 of the present application was freshly prepared with an aqueous solution containing 0.5% MC/0.25% Tween 80 on the day of administration. All animals were fasted overnight before administration, and were allowed to have free food intake 4 hours after administration. Each group included three mice, and each mouse was orally administered a single dose of 10 mg/kg on the day of the experiment. About 30 μL of whole blood was collected from the dorsal vein of the foot at 0.25, 0.5, 1, 2, 4, 6, 8, and 24 hours after administration, transferred to an anticoagulation tube containing heparin sodium and mixed thoroughly by inverting for several times. The collected blood sample was centrifuged at 4° C. and 4000 g for 5 min to collect plasma, and the plasma sample was dispensed into clean polyethylene microcentrifuge tubes, and then stored in a freezer at −75±15° C. until analysis. The actual administration volume was calculated based on the animal's body weight. All samples were analyzed by LC-MS/MS, and the concentration of the drug to be tested in the samples was determined by the standard curve method. The average plasma concentration in a group of three mice at each measurement time point after a single oral administration is shown in FIG. 3.

[2] = system: Jurkat (FADD−/−) cells; experiment: Inhibition of TNF-induced programmed Jurkat (FADD−/−) cell necrosis (Cell Titer-Glo); type: cell-based, human; conditions: Homo sapiens, Jurkat, 20 h, read-out: Cellular IC50 (M) Jurkat (FADD−/−)
Summary of the method: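 FADD-knockout Jurkat cells (5×10^5/mL) preincubated with compound, then given TNF (final 10 ng/mL) for 20 h at 37 °C. ATP measured by Cell Titer-Glo luminescence, normalised to untreated DMSO wells as 100% viability; IC50 from duplicate wells.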

[3] = system: TNF-α induced shock; experiment: TNF-α induced shock test in mice; type: in vivo, C57BL/6 mice; conditions: 10, 20 and 30 mg/kg, given 15 min before TNF-α; body temperature 0-6 h
Description: C57BL/6 mice were specially sterilized, and the animals are randomly grouped according to their body weight. 0.15 mg/mL TNF-α was prepared. Each mouse was injected with 200 μL TNF-alpha (30 μg per mouse) through the tail vein. 15 min before TNF-α induction, the drug was administered according to the body weight. At 0 h, 1 h, 2 h, 4 h, and 6 h, the body temperature of the mouse was detected by a small animal thermometer and recorded, and the state of the animal was observed during the test. After 6 h, the mice were euthanized with CO2. The experimental data was plotted by Graph Pad Prism 7, and expressed as mean±standard error (Mean±SEM). The area under the clinical scoring curve was analyzed by one-way ANOVA. p<0.05 is considered to have significant differences as compared to the control group.

[4] = molecular target: T1, human RIP1 (Homo sapiens, UniProt Q13546); experiment: Inhibition of ADP-Glo RIP1 kinase activity; type: biochemical
T1 construct: made in house; host or cells: Sf-9 insect cells
T1 sequence (Q13546 1-671): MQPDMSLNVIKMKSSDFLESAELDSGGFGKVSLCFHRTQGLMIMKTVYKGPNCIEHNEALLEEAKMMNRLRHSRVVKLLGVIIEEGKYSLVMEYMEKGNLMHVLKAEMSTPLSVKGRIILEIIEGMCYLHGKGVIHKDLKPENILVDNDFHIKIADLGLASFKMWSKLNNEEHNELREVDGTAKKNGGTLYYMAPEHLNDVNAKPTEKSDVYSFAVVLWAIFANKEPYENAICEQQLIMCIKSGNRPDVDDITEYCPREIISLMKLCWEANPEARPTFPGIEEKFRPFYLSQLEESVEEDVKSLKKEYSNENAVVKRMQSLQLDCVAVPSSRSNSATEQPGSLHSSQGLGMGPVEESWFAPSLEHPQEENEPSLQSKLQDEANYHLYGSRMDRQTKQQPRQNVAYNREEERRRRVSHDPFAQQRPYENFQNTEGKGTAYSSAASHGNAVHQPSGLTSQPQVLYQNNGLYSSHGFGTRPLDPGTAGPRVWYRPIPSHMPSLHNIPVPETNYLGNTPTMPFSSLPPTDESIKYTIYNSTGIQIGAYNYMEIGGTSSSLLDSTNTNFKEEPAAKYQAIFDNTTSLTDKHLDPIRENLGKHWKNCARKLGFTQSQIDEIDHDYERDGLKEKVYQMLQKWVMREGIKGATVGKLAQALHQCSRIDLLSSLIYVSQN
Description: The human RIP1 gene was transduced into Sf-9 insect cells, and the RIP1 protein was purified by Ni+ affinity chromatography and then by S-200 molecular sieve to remove the protein multimers. The obtained RIP1 protein was stored at −70° C., and the activity of the RIP1 protein in catalyzing autophosphorylation was detected by the ADP-Glo™ Kinase Activity Assay Kit (Promega) and the inhibitory activity of the drug against the RIP1 kinase was determined.
100 nL of the compound was transferred to a 384-well assay plate. Two replicate wells were set for each concentration of each drug.
The RIP1 enzyme solution and ATP solution were formulated in an assay buffer (containing 50 mM HEPES pH 7.5, 30 mM MgCl2, 50 mM NaCl, 1 mM DTT, 0.02% CHAPS, and 0.5 mg/ml BSA). Then, 5 μL of the RIP1 enzyme solution (final concentration 50 nM) was added to the assay plate and incubated at room temperature for 1 h. 5 μL of the ATP solution (final concentration 10 μM) was added to the assay plate, and incubate at room temperature for 4 h. Then 5 μL of ADP-Glo reagent was added to the assay plate, and incubated at room temperature for 60 min. 5 μL of a kinase assay solution was added to the assay plate, and incubated at room temperature for 30 min. After readout on Envision, the inhibition rate in each well was calculated from the full-activity well and the background well, and the Ki of the compound was calculated by GraphPad Prism 7 software (using the Morrision equation to fit the curve and calculate the Ki).

[5] = TNF 10 ng/mL, intracellular ATP level

For `CN1C(=O)[C@@H](NC(=O)c2nnc(Cc3ccccc3)[nH]2)COc2cc3[nH]nc(Cl)c3cc21` [RIP1-034], the “plasma concentration after oral administration” value [1] was “can reach a desirable plasma concentration”, the IC50 [2, 5] was 8.9e-10 M and the “decrease in body temperature due to systemic inflammatory response caused by TNF-α” value [3] was “effectively inhibits the decrease in body temperature”. The Ki [4] was 6.35 nM.

For `CN1C(=O)[C@@H](NC(=O)c2nnc(Cc3ccccc3)o2)COc2cc3nccnc3cc21` [RIP1-134], the IC50 [2, 5] was 9.03e-09 M and the Ki [4] was 21.9 nM.

`CN1C(=O)[C@@H](NC(=O)c2nnc(Cc3ccccc3)o2)COc2cc3occc3cc21` [RIP1-125] showed an IC50 [2, 5] of 8.43e-10 M and a Ki [4] of 19.6 nM.

For `CN1C(=O)[C@@H](NC(=O)c2nnn(Cc3ccccc3)n2)COc2cc3[nH]nnc3cc21` [RIP1-139], the IC50 [2, 5] was 7.81e-10 M and the Ki [4] was 20.3 nM.

`CN1C(=O)[C@@H](NC(=O)c2cc(Cc3ccccc3)on2)COc2cc3[nH]nc(Cl)c3cc21` [RIP1-033] showed an IC50 [2, 5] of 6.8e-10 M and a Ki [4] of 10.8 nM.

Work on `CN1C(=O)[C@@H](NC(=O)c2nnc(Cc3ccccc3)o2)COc2cc3[nH]nnc3cc21` [RIP1-153] yielded an IC50 [2] of 1.52e-09 M and a Ki [4] of 12.8 nM.

`CN1C(=O)[C@@H](NC(=O)c2cc(Cc3ccccc3)on2)COc2cc3occc3cc21` [RIP1-126] showed an IC50 [2, 5] of 2.61e-09 M and a Ki [4] of 25.6 nM.

With `Cc1nc2cc3c(cc2[nH]1)OC[C@H](NC(=O)c1ncn(Cc2ccccc2)n1)C(=O)N3C` [RIP1-068] the IC50 [2, 5] was 7.62e-09 M and the Ki [4] was 42.8 nM.

`Cc1nc2cc3c(cc2[nH]1)OC[C@H](NC(=O)c1cn(Cc2ccccc2)cn1)C(=O)N3C` [RIP1-067] gave an IC50 [2] of 6.72e-09 M and a Ki [4] of 28.6 nM.

With `CN1C(=O)[C@@H](NC(=O)c2cn(Cc3ccccc3)nn2)COc2cc3[nH]nc(Cl)c3cc21` [RIP1-035] the IC50 [2, 5] was 1.94e-09 M and the Ki [4] was 7.8 nM.

`CN1C(=O)[C@@H](NC(=O)c2nnn(Cc3ccccc3)n2)COc2cc3nccnc3cc21` [RIP1-131] gave an IC50 [2, 5] of 1.29e-09 M and a Ki [4] of 28.6 nM.

`CN1C(=O)[C@@H](NC(=O)c2ncn(Cc3ccccc3)n2)COc2cc3occc3cc21` [RIP1-119] gave an IC50 [2, 5] of 5.81e-10 M and a Ki [4] of 19.1 nM.
